Results published in EP0501442B1, “8-chloro-benzothiazepine-compound for prophylaxis and treatment of sequelae of cerebral neurocyte necrosis” (priority 1991, dated 1992).

Test: Acute oral toxicity (50 % lethal dose) in mice
Conditions: mouse, in vivo, orally administered to mice, read-out: 50 % lethal dose (LD₅₀)
Protocol: Further, the benzothiazepine derivative (I) or a pharmacologically acceptable salt thereof has low toxicity and high safety. For example, when 2-(4-methoxyphenyl)-3-acetoxy-5-[2-(dimethylamino)ethyl]-8-chloro-2,3-dihydro-1,5-benzothiazepin-4(5H)-one·maleate is orally administered to mice, its 50 % lethal dose (LD₅₀) was about 800 mg/kg.

COc1ccc([C@@H]2Sc3cc(Cl)ccc3N(CCN(C)C)C(=O)[C@@H]2OC(C)=O)cc1 [(+)-cis-2-(4-methoxyphenyl)-3-acetoxy-5-[2-(dimethylamino)ethyl]-8-chloro-2,3-dihydro-1,5-benzothiazepin-4(5H)-one·maleate]
LD50: ~800 mg/kg
